Experimental data from patent publication US11999746B2, “Compounds” (GlaxoSmithKline Intellectual Property Development Limited, priority 2014, dated 2024).

Legend:
[1] = target: T1, recombinant human Lp-PLA2 (Homo sapiens, UniProt Q13093); assay: (1b) hrThioPAF assay, recombinant human Lp-PLA2; type: biochemical; conditions: Examples 266-412 were tested here, one experiment or average of multiple experiments, read-out: rhLp-PLA2 (pIC50) (converted)
T1 sequence (Q13093 22-441): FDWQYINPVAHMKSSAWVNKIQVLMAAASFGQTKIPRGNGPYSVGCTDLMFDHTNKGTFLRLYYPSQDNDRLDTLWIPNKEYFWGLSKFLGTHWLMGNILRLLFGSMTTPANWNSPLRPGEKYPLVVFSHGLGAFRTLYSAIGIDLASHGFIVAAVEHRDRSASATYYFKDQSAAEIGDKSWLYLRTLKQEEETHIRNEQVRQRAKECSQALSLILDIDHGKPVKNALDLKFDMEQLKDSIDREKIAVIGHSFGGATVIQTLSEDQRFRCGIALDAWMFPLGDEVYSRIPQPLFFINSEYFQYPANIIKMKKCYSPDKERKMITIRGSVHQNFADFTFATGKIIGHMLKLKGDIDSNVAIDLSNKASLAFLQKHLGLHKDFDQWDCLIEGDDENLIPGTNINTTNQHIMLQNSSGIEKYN
How it was run: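 Fluorogenic assay: 20 pM rhLp-PLA2 in 50 mM HEPES pH 7.4, 150 mM NaCl, 1 mM CHAPS with 1:3 serially diluted compounds; substrate mix of 40 μM 2-thio-PAF, 40 μM CPM, 400 μM NEM (pre-addition levels). 20 min at 25 °C in the dark; fluorescence ex 380/em 485 nm, pIC50 by curve fitting.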

Lp-PLA2 in human plasma = target: T2, Lp-PLA2 in human plasma (Homo sapiens, UniProt Q13093); assay: (3b) Lp-PLA2 human plasma alternative Thio-PAF assay; type: biochemical; conditions: (3b) alternative Thio-PAF assay, pooled human plasma; Examples of 266-412 were tested here; read-out: pIC50 in the Lp-PLA2 human plasma assay (converted)
T2 construct: from tissue; host or cells: pooled human plasma
T2 sequence (Q13093 22-441): T1 sequence (Q13093 22-441)
Protocol: (3b) Alternative Thio-PAF Assay
The human plasma assay utilizes the same thioester analog of PAF as described in (1b) “hr ThioPAF” assay. This assay may detect the activity of Lp-PLA2 in human plasma, as determined by specific inhibition by Lp-PLA2 inhibitors.
The thio-PAF assay was run as a quenched 20 μL assay. Compounds source plate was prepared by making 1:3 (by volume) serial dilution of the compounds into pure DMSO on 96-well microplate. 5 μL of compounds on compound source plate were transferred to 96-well Corning 3686 (black) low-volume plates by STAR+(Hamilton) liquid dispenser. 10 μL pooled human plasma, which was previously aliquoted and frozen, was added. Plates were centrifuged for 30 sec at 1000 rpm. After 15 minutes preincubation at room temperature, 5 μL of substrate solution comprising 2 mM 2-thio-PAF [from ethanol stock], 52 μM CPM [from a DMSO stock] and 2.5 mM NEM (N-ethylmaleimide) [made fresh daily in DMSO] in assay buffer (50 mM HEPES, pH 7.4, 150 mM NaCl, 1 mM CHAPS) was added to 96-well Corning 3686 (black) low-volume plates. After 3 mins, reaction was quenched with 10 μL of 5% aqueous trifluoroacetic acid (TFA). Plates were centrifuged 30 sec at 1000 rpm, covered to protect from light and incubated for 10 min at room temperature. Plates were read at ex: 380 nm/em: 485 nm using Envision plate reader (Perkin Elmer). Raw data were transferred to Excel software and pIC50 data, curve and QC analysis was conducted by using XL fit module in Excel.

| SMILES | IC50 [1] [nM] | IC50 (Lp-PLA2 in human plasma) [nM] |
| --- | --- | --- |
| N#Cc1cc(COc2cc3n(c(=O)n2)CC2CSCCN32)ccc1F (stereo not drawn) [Example E364, 2-Fluoro-5-(((9-oxo-1,3,4,9,11,11a-hexahydropyrimido[6′,1′:2,3]imidazo[5,1-c][1,4]thiazin-7-yl)oxy)methyl)benzonitrile] | ≤ 100 | ≤ 100 |
| [2H]C1([2H])C2CN(S(C)(=O)=O)CCN2c2cc(OCc3ccc(F)c(C#N)c3)nc(=O)n21 (stereo not drawn) [Example E287, 5-(((11,11-Dideutero-2-(methylsulfonyl)-9-oxo-2,3,4,9,11,11a-hexahydro-1H-pyrazino[1′,2′:3,4]imidazo[1,2-c]pyrimidin-7-yl)oxy)methyl)-2-fluorobenzonitrile] | ≤ 10000 | ≤ 100 |
| [2H]C1([2H])C2CN(C(C)=O)CCN2c2cc(OCc3ccc(F)c(C#N)c3)nc(=O)n21 (stereo not drawn) [Example E285, 5-(((2-Acetyl-11,11-dideutero-9-oxo-2,3,4,9,11,11a-hexahydro-1H-pyrazino[1′,2′:3,4]imidazo[1,2-c]pyrimidin-7-yl)oxy)methyl)-2-fluorobenzonitrile] | ≤ 10000 | ≤ 100 |
| CC(C)(N)CC(=O)N1CCN2c3cc(OCc4ccc(F)c(C#N)c4)nc(=O)n3CC2C1 (stereo not drawn) [Example E298, 5-(((2-(3-Amino-3-methylbutanoyl)-9-oxo-2,3,4,9,11,11a-hexahydro-1H-pyrazino[1′,2′:3,4]imidazo[1,2-c]pyrimidin-7-yl)oxy)methyl)-2-fluorobenzonitrile 2,2,2-trifluoroacetate] | ≤ 10000 | ≤ 100 |
| O=c1nc(OCc2ccc(F)c(F)c2)cc2n1CC1(CCNCC1)N2 [Example 406, 7-((3,4-Difluorobenzyl)oxy)-1H-spiro[imidazo[1,2-c]pyrimidine-2,4′-piperidin]-5(3H)-one] | ≤ 10000 | ≤ 100 |
| CCCN1CCN2c3cc(OCc4ccc(F)c(F)c4)nc(=O)n3CC2C1 (stereo not drawn) [Example E304, 7-((3,4-Difluorobenzyl)oxy)-2-propyl-3,4,11,11a-tetrahydro-1H-pyrazino[1′,2′:3,4]imidazo[1,2-c]pyrimidin-9(2H)-one] | ≤ 10000 | ≤ 100 |
| CCN1CCN2c3cc(OCc4ccc(F)c(C#N)c4)nc(=O)n3CC2C1 (stereo not drawn) [Example E280, 5-(((2-Ethyl-9-oxo-2,3,4,9,11,11a-hexahydro-1H-pyrazino[1′,2′:3,4]imidazo[1,2-c]pyrimidin-7-yl)oxy)methyl)-2-fluorobenzonitrile] | ≤ 10000 | ≤ 100 |
| O=C([C@@H]1C[C@H](F)CN1)N1CCN2c3cc(OCc4ccc(F)c(F)c4)nc(=O)n3CC2C1 (stereo partly drawn) [Example E341, 7-((3,4-Difluorobenzyl)oxy)-2-((2S,4S)-4-fluoropyrrolidin-2-carbonyl)-3,4,11,11a-tetrahydro-1H-pyrazino[1′,2′:3,4]imidazo[1,2-c]pyrimidin-9(2H)-one] | ≤ 10000 | ≤ 100 |
| N#Cc1cc(COc2cc3n(c(=O)n2)CC2CN(C(=O)C4CC4)CCN32)ccc1F (stereo not drawn) [Example E292, 5-(((2-(cyclopropanecarbonyl)-9-oxo-2,3,4,9,11,11a-hexahydro-1H-pyrazino[1′,2′:3,4]imidazo[1,2-c]pyrimidin-7-yl)oxy)methyl)-2-fluorobenzonitrile 2,2,2-trifluoroacetate] | ≤ 10000 | ≤ 100 |
| CNC1(C(=O)N2CCN3c4cc(OCc5ccc(F)c(F)c5)nc(=O)n4CC3C2)CC1 (stereo not drawn) [Example E308, 7-((3,4-Difluorobenzyl)oxy)-2-(1-(methylamino)cyclopropanecarbonyl)-3,4,11,11a-tetrahydro-1H-pyrazino[1′,2′:3,4]imidazo[1,2-c]pyrimidin-9(2H)-one] | ≤ 10000 | ≤ 100 |
| O=C([C@@H]1CC(F)(F)CN1)N1CCN2c3cc(OCc4ccc(F)c(F)c4)nc(=O)n3CC2C1 (stereo partly drawn) [Example E342, 7-((3,4-Difluorobenzyl)oxy)-2-((S)-4,4-difluoropyrrolidin-2-carbonyl)-3,4,11,11a-tetrahydro-1H-pyrazino[1,2′:3,4]imidazo[1,2-c]pyrimidin-9(2H)-one] | ≤ 10000 | ≤ 100 |
| O=C([C@H]1CCCN1)N1CCN2c3cc(OCc4ccc(F)c(F)c4)nc(=O)n3CC2C1 (stereo partly drawn) [Example E343, 7-((3,4-Difluorobenzyl)oxy)-2-((R)-pyrrolidine-2-carbonyl)-3,4,11,11a-tetrahydro-1H-pyrazino[1,2′:3,4]imidazo[1,2-c]pyrimidin-9(2H)-one] | ≤ 10000 | ≤ 100 |

Results, then the molecule that gave them:

| IC50 [1] [nM] | IC50 (Lp-PLA2 in human plasma) [nM] | SMILES |
| --- | --- | --- |
| ≤ 1 | ≤ 100 | O=c1nc(OCc2cc(F)c(Oc3ccnc(C(F)(F)F)c3)c(F)c2)cc2n1C[C@@H]1C[C@H](O)CN21 [Example E383, (7S,8aS)-3-((3,5-Difluoro-4-((2-(trifluoromethyl)pyridin-4-yl)oxy)benzyl)oxy)-7-hydroxy-7,8,8a,9-tetrahydropyrrolo[1′,2′:3,4]imidazo[1,2-c]pyrimidin-1(6H)-one] |
| ≤ 10000 | ≤ 100 | O=c1nc(OCc2cc(F)c(Oc3ccnc(C(F)(F)F)c3)c(F)c2)cc2n1CC1C[S+]([O-])CCN21 (stereo not drawn) [Example E369, 7-((3,5-Difluoro-4-((2-(trifluoromethyl)pyridin-4-yl)oxy)benzyl)oxy)-3,4,11,11a-tetrahydropyrimido[6′,1′:2,3]imidazo[5,1-c][1,4]thiazin-9(1H)-one 2-oxide] |
| ≤ 10000 | ≤ 100 | CC(=O)N1CCN2c3cc(OCc4cc(F)c(Oc5ccc(C)nc5)c(F)c4)nc(=O)n3CC2C1 (stereo not drawn) [Example E299, 2-Acetyl-7-((3,5-difluoro-4-((6-methylpyridin-3-yl)oxy)benzyl)oxy)-3,4,11,11a-tetrahydro-1H-pyrazino[1′,2′:3,4]imidazo[1,2-c]pyrimidin-9(2H)-one] |
| ≤ 10000 | ≤ 100 | N[C@H]1C[C@H]2Cn3c(cc(OCc4cc(F)c(Oc5ccnc(C(F)(F)F)c5)c(F)c4)nc3=O)N2C1 [Example E390, (7S,8aS)-7-Amino-3-((3,5-difluoro-4-((2-(trifluoromethyl)pyridin-4-yl)oxy)benzyl)oxy)-7,8,8a,9-tetrahydropyrrolo[1′,2′:3,4]imidazo[1,2-c]pyrimidin-1(6H)-one] |
| ≤ 10000 | ≤ 100 | Cc1ccc(Oc2c(F)cc(COc3cc4n(c(=O)n3)CC3(COC3)N4C)cc2F)cn1 [Example 400, 7-((3,5-Difluoro-4-((6-methylpyridin-3-yl)oxy)benzyl)oxy)-1-methyl-1H-spiro[imidazo[1,2-c]pyrimidine-2,3′-oxetan]-5(3H)-one] |
| ≤ 10000 | ≤ 100 | Cc1ccc(Oc2c(F)cc(COc3cc4n(c(=O)n3)CC3(COC3)N4)cc2F)cn1 [Example E394, 7-((3,5-Difluoro-4-((6-methylpyridin-3-yl)oxy)benzyl)oxy)-1H-spiro[imidazo[1,2-c]pyrimidine-2,3′-oxetan]-5(3H)-one] |
| 0.501 | ≤ 100 | O=C1CN2c3cc(OCc4cc(F)c(Oc5cncc(C(F)(F)F)c5)c(F)c4)nc(=O)n3CC2CN1 (stereo not drawn) [Example E352, 7-((3,5-Difluoro-4-((5-(trifluoromethyl)pyridin-3-yl)oxy)benzyl)oxy)-11,11a-dihydro-1H-pyrazino[1,2′:3,4]imidazo[1,2-c]pyrimidine-3,9(2H,4H)-dione] |
| ≤ 10000 | ≤ 100 | N#Cc1cc(COc2cc3n(c(=O)n2)C[C@@H]2C[C@H](N)CN32)ccc1F [Example E391, 5-((((7S,8aS)-7-Amino-1-oxo-1,6,7,8,8a,9-hexahydropyrrolo[1′,2′:3,4]imidazo[1,2-c]pyrimidin-3-yl)oxy)methyl)-2-fluorobenzonitrile] |
| ≤ 1 | ≤ 100 | O=c1nc(OCc2cc(F)c(Oc3cncc(C(F)(F)F)c3)c(F)c2)cc2n1CC1CNCCN21 (stereo not drawn) [Example E273, 7-((3,5-Difluoro-4-((5-(trifluoromethyl)pyridin-3-yl)oxy)benzyl)oxy)-3,4,11,11a-tetrahydro-1H-pyrazino[1′,2′:3,4] imidazo [1,2-c]pyrimidin-9(2H)-one] |
